Data published in patent US9084806B2, “Hypoxia-responsive nanoparticle for therapy and imaging of hypoxia-involving diseases” (RESEARCH & BUSINESS FOUNDATION SUNGKYUNKWAN UNIVERSITY, priority 2012, dated 2015).
Entries after “also recorded” stand apart in the source; their conditions may differ.

Legend:
SCC7 cells = experiment: In vitro cytotoxicity, MTT assay; type: cell-based; settings: 24 h, various concentrations
Method: To evaluate in vitro cytotoxicity of HR-NPs, they were exposed to the SCC7 cells for 24 h at 37° C., after which the cell viability was measured using the MTT assay (FIG. 6a).
SCC7 (squamous carcinoma) cell lines, obtained from the American Type Culture Collection (Rockville, Md., USA), were cultured in RPMI 1640 medium (Gibco, Grand Island, N.Y., USA) containing 10% (v/v) fetal bovine serum and 1% (w/v) penicillin-streptomycin at 37° C. in a humidified 5% CO2-95% air atmosphere. The cells were seeded at a density of 1 104 cells/well in 96-well flat-bottomed plates. After one day of growth, the cells were washed twice with a PBS (pH 7.4) and incubated for 24 h with various concentrations of free DOX or DOX-HR-NPs (HR-NP8 and HR-NP11) under the hypoxic or normoxic condition. The cells were then washed twice with a PBS (pH 7.4) and the fresh culture medium was added. Twenty microliters of 3-(4,5-dimethylthiazol-2-yl)-2,5-diphenyltetrazolium bromide solution (5 mg/ml in PBS) were added to each well, and the cells were incubated for an additional 4 h at 37° C. Subsequently, the medium was removed, and the cells were dissolved in DMSO. The absorbance at 570 nm was measured using a microplate reader (BioTek, Seoul, Korea).

SCC7 cancer xenografts = experiment: In vivo antitumor efficacy; set-up: species or system mice; settings: DOX dose 5 mg/kg, once every three days
Method: To evaluate the anti-tumor efficacy of HR-NPs, SCC7 tumor bearing mice were prepared, as previously described. Mice were divided into three groups: (i) normal saline (ii) free DOX at 5 mg/kg, and (iii) DOX-HR-NP11 at 5 mg DOX/kg. When tumors reached 8 mm in diameter, each sample was injected once every three days. Tumor volumes were calculated as a×b^2/2, were a was the largest and b the smallest diameter. The statistical significance of differences (p<0.05) between groups tested was determined using one-way ANOVA test.

[1] = cited from earlier work

Row | Structure (SMILES) | cytotoxicity in the hypoxic condition compared with the normoxic condition (SCC7 cells) | change in tumor volume (SCC7 cancer xenografts) | solubility in water [1]
1 | COc1cccc2c1C(=O)c1c(O)c3c(c(O)c1C2=O)C[C@@](O)(C(=O)CO)C[C@@H]3O[C@H]1C[C@H](N)[C@H](O)[C@H](C)O1 [free DOX, doxorubicin] | comparable | considerable increase | –
2 | Nc1ncc[nH]1 [2-aminoimidazole] | – | – | readily dissolving in water; also recorded: highly water-soluble
3 | O=[N+]([O-])c1ncc[nH]1 [2-nitroimidazole] | – | – | poorly soluble in water
